Assay results: patent US20250066864A1, “METHODS FOR IDENTIFYING ADAR1 INHIBITORS, AND COMPOSITIONS AND METHODS OF USE IN TREATING CANCER” (The Wistar Institute of Anatomy and Biology, priority 2021, published 2025)
pKd: −log10 of the molar value. Entries after “also recorded” stand apart in the source; their conditions may differ.

Legend:
[1] = molecular target: T1, ADAR1p110-WT (Homo sapiens, UniProt P55265); experiment: surface plasmon resonance (Biacore T200), ADAR1p110-WT; format: binding; conditions: SPR
T1 sequence (P55265 1-931 isoform P55265-5): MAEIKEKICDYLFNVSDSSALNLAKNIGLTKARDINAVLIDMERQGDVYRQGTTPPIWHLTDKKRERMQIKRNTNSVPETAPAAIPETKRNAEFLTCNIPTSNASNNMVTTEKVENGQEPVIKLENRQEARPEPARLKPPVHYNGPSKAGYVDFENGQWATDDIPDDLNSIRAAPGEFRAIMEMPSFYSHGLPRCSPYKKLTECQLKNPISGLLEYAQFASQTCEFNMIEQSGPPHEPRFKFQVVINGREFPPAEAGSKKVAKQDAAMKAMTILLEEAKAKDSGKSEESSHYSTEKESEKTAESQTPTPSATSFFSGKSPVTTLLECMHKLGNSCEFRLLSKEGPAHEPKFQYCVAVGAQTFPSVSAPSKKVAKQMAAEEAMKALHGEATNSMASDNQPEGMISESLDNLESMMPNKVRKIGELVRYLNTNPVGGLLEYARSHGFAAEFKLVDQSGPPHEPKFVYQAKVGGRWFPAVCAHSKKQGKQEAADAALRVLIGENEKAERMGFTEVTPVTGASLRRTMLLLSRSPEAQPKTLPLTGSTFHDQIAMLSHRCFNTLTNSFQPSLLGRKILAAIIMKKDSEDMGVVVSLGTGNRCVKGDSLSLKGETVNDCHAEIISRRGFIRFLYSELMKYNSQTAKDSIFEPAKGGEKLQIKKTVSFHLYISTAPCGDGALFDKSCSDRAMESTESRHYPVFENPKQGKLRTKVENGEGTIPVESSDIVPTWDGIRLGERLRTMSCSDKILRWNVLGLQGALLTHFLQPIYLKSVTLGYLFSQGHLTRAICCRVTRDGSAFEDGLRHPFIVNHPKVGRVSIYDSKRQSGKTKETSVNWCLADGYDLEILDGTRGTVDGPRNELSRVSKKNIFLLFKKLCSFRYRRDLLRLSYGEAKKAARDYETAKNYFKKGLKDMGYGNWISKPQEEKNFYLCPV
Description: We synthesized 2 additional analogs of Compound #13 for preliminary structure activity relationships (SAR), namely, #13-Analog 1 and #13-Analog 2 (Table 3). Compound #13-Analog 1 lacks the 4-cyano moiety and #13-Analog 2 shifts the cyano to the 2-position of the phenyl ring. […] We hypothesized that the cyano-phenyl moiety will coordinate with the zinc atom in the active site when bound to ADAR1. We evaluated the ability of Compound #13 to bind to ADAR1 using surface plasmon resonance (SPR) on the Biacore T200. […] We modeled Compound #13 into the ADAR2 active site (56).

[2] = tested on: HeLa cells; experiment: dot blot analysis for RNA:DNA hybrids in HeLa cells; format: cell-based, human; conditions: 10 μM
Protocol: (§1) FIGS. 29A-29D Characterization of Compound #13 effects in cancer cells. […] Viability was examined using the Apo Tox-Glo assay system (Promega). Control, 0.3% DMSO. (FIG. 29B) Western blotting analysis of HeLa cells treated with Compound #13 (10 μM). […] (FIG. 29D) Activation of the IFN signaling pathway. HSC-4 squamous carcinoma cells were treated with Compound #13 at 10 μM (12 hrs). RNA samples were analyzed by qRT-PCR to monitor expression levels of ISGs.
Dot blot analysis of genomic DNA Cells were treated with siRNA for 72 h in a 10 cm dish, detached from the dish surface with TrypLE Express Enzyme, and harvested by centrifugation. After PBS wash, genomic DNA was purified using QIAGEN Blood & Cell Culture DNA Midi Kit. Briefly, the cell pellet was resuspended in buffer C1. After repeated buffer C1 wash and removal of the cell debris, the nuclear pellet was resuspended in buffer G2 (without rNase A) and treated with 2 mg of proteinase K at 50° C. for 60 min. The nuclear fraction was applied to a buffer QBT-treated QIAGEN Genomic-tip and washed twice with buffer QC. […]
Genomic DNA was diluted in 100 μl of 6× saline sodium citrate (SSC) and spotted onto a Hybond N^+ (GE Healthcare) using a Bio-Dot Apparatus (#1706545, Bio-Rad). […] After washing four times with PBST, dot signals were detected with ECL (GE Healthcare) using X-ray films. […]

[3] = tested on: HeLa cells; experiment: Western blotting analysis of treated HeLa cells (DNA damage, M phase arrest, apoptosis); format: cell-based, human; conditions: 10 μM
Protocol: as §1
Cell lysates were prepared in Laemmli buffer containing benzonase nuclease (Sigma), complete EDTA-free proteinase inhibitor cocktail (Roche), and PhosStop phosphatase inhibitor cocktail (Roche) and size-fractionated by 4-20% sodium dodecyl sulfate-polyacrylamide gel electrophoresis. Proteins were blotted to Immobilon-P […] membrane (Millipore). Membranes were blocked with 10% Blocker BSA (bovine serum albumin) buffer (Thermo Fisher Scientific) and incubated with the primary antibodies overnight at 4° C. After incubation with each appropriate secondary antibody, bands were detected with ECL (GE Healthcare) using X-ray films. Antibodies were diluted in 10% Blocker BSA buffer (Thermo Fisher Scientific).

- binding to ADAR1p110 wildtype (qualitative) [1]: binds
- pKd ([1]; read-out: Kd, binding to ADAR1p110-WT): ~4.59
Compound: N#Cc1ccc(NC(=O)c2sc3ccccc3c2Cl)cc1 [Compound #13, 3-chloro-N-(4-cyanophenyl)-1-benzothiophene-2-carboxamide]
- formation of R-loops (RNA:DNA hybrids) [2]: increased formation of R-loops; also recorded: RNA:DNA hybrids induced
- DNA damage, M phase arrest and apoptosis markers by Western blotting [3]: induced DNA damage, M phase arrest, and apoptosis; also recorded: upregulated γ-H2AX, Histone 3 phosphorylated at Serine 10, and cleaved PARP bands
